From paper PMC8911775, “Phosphodiester Silybin Dimers Powerful Radical Scavengers: A Antiproliferative Activity on Different Cancer Cell Lines” (Molecules, 2022)

What was measured:
[1] = design: method as in PMID 28800072; settings: estimated, relative to silibinin; cited from earlier work
[2] = Apoptosis assay, annexin V-FITC/PI double staining, flow cytometry; type: cell-based, Human; settings: human, Jurkat cells, 37 °C, Figure 4, read-out: viable cells (lower left quadrant)
Procedure: (§1) For this purpose, Jurkat was incubated with the molecules at a concentration of 200 μM, and flow cytometric analysis with annexin V/propidium iodine (PI) double staining was carried out.
(§2) The apoptosis analysis was performed on Jurkat cells seeded at 2.5 × 10^5 cells/mL in a 6-well plate. The cells were incubated in the absence or presence of 200 μM concentration of examined compounds at 37 °C and apoptosis induction was analysed after 48 h by double staining with annexin V/FITC and propidium iodide (PI) (eBioscience, Affimetrix Santa Clara, CA, USA). The cells undergoing apoptosis were quantified using a flow cytometer equipped with a 488 nm argon laser (Becton Dickinson, Franklin Lakes, NJ, USA) by Cell Quest software. All FACS analyses were performed at least 2 times.

Jurkat cells = experiment: as above; type: cell-based, Human; settings: 200 μM, 48 h
Procedure: as §1, §2

HDF = experiment: Antiproliferative activity on normal human fibroblasts HDF; type: cell-based; settings: 48 h incubation
Procedure: (§3) Human T lymphoblastoid (Jurkat) and human metastatic melanoma (WM266) cell lines were grown in RPMI medium supplemented with heat inactivated 10% fetal bovine serum (FBS), 2.5 mM glutamine, 100 U/mL penicillin, and 100 μg/mL streptomycin (Euroclone). Human cervix adenocarcinoma cell line (HeLa), human lung carcinoma (A549), human pancreatic cancer (PANC), human glioblastoma (U87) normal human fibroblasts (HDF) were grown in DMEM supplemented with 10% fetal bovine serum (FBS), 1% glutamine, 100 U/mL penicillin and 100 μg/mL streptomycin (Euroclone, Milano, Italy). Cells were maintained in humidified air containing 5% CO2, at 37 °C [30].
(§4) Cells were plated at density of 10,000 cells/well for Jurkat, 2000/well for WM266 and HDF, 1200 cells/well for HeLa, and 1000 for PANC, U87 and A375 in 96-well microplates (Thermofisher, Waltham, MA, USA). After 24 h incubation, cells were treated with increasing concentrations of synthetized compounds previously solubilized in DMSO at 50 mM concentration. Cell proliferation was determined by using (2-(2-methoxy-4-nitrophenyl)-3-(4-nitrophenyl)-5-(2,4-disulfophenyl)-2H-tetrazolium, monosodium salt (CCK-8, Sigma Aldrich) for Jurkat cells, and the 3-(4,5-dimethylthiazol-2-yl)-2,5- diphenyltetrazolium bromide assay (MTT, Sigma Aldrich, Sigma Aldrich, St. Louis, MO, USA)) for HeLa, WM266, PANC, U87 and HDF cells, after 48 h treatment. Plates were then analyzed by using a microplate reader (Enspire, Perkin Elmer Italia Spa, Milano, Italy) at 450 (CCK-8) or 570 nm (MTT).
(§5) The results are presented as the percentage of proliferating cells respect to the control (vehicle treated cells) and are expressed as means ± SE of, at least, three independent experiments performed in triplicate. The statistical analysis was performed using Student’s t-test, unpaired, two-sided, p < 0.05 was considered significant. The IC50 values were calculated by GraphPad Prism software.

Jurkat = experiment: Antiproliferative activity on Jurkat cells (CCK-8); type: cell-based; settings: Homo sapiens, 48 h incubation
Procedure: as §3, §4, §5

[3] = Hydroxyl radical (HO•) scavenging, second-order rate constant by laser flash photolysis (thiocyanate competition); settings: calculated in H2O; mean of three replicates
From the text: Biologically, the hydroxyl radical (HO^●) is widely believed to be generated when hydrogen peroxide reacts with Fe(II) (Fenton reaction). The putative HO^●∙is an extremely reactive and short-lived species that can damage DNA, proteins, and lipids. However, the Fe(II)/H2O2 mixture has disadvantages in a scavenging assay because many flavonoids as well as flavonolignans are also metal chelators. When the sample is mixed with Fe(II), it may alter the activity of Fe(II) by chelation. As a result, it is impossible to distinguish if the antioxidants are simply good metal chelators or HO^● scavengers. In our study the second order rate constants for HO^● reactions with silybin dimers (6aa, 6bb and 6ab) have been determined by pulse photolysis method using hydrogen peroxide (H2O2) as ROS sources. […] This could be explained considering that in dimers 9′′-9′′ the 3, 5 and 4′′ OH functions, responsible for the radical scavenger activity, are not involved in any bond. […]
The reactivity constant between new silybin dimers and hydroxyl radical has been determined using Laser flash Photolysis system. […]
The formation of di-thiocyanate radical anion (SCN2^●−) through reactivity of photogenerated hydroxyl radicals (HO^●) with thiocyanate (SCN^- in the presence of hydrogen peroxide. The second-order rate constants between HO^● and dimers were determined following reactions (R1–R4 in the Section 2.2) and using the following equation:(1) Abs0/Abs=1+kHO^•,DimerII[Dimer]/kHO^•,SCN^−II[SCN^−] where Abs0 and Abs are the absorption of SCN2•− at 475 nm in absence and presence of dimers; kHO^•,SCN^−II and kHO^•,DimerII are the second-order rate constants of HO^● with thiocyanate and dimers at different concentrations. […] Means were compared by one way analysis of variance (ANOVA) and significant differences were assessed by post hoc tests of least significant. […]

SMILES | IC50 (Jurkat) [µM] | reactivity towards HO• with respect to silibinin [1] | viability at 48 h, 200 µM [2] [%] | apoptotic cells (early and advanced) with respect to the control (Jurkat cells) | IC50 (HDF) [µM] | Second order rate constant kHO•,X II [3]
COc1cc(C2Oc3cc([C@H]4Oc5cc(O)cc(O)c5C(=O)[C@@H]4OP(=O)(O)OCC4Oc5ccc([C@H]6Oc7cc(O)cc(O)c7C(=O)[C@@H]6O)cc5OC4c4ccc(O)c(OC)c4)ccc3OC2CO)ccc1O (stereo partly shown) [3-9′′] | – | about two times | – | – | – | –
COc1cc(C2Oc3cc([C@H]4Oc5cc(O)cc(O)c5C(=O)[C@@H]4O)ccc3OC2COP(=O)(O)OCC2Oc3ccc([C@H]4Oc5cc(O)cc(O)c5C(=O)[C@@H]4O)cc3OC2c2ccc(O)c(OC)c2)ccc1O (stereo partly shown) [9′′-9′′] | – | about two times | – | – | – | –
COc1cc([C@H]2Oc3cc([C@H]4Oc5cc(O)cc(O)c5C(=O)[C@@H]4O)ccc3O[C@@H]2CO)ccc1O [Compound 1a, silybin A, reference compound] | 46.7 ± 14.1 | – | 20.2 | 70% | 199 ± 34.5 | –
COc1cc([C@@H]2Oc3cc([C@H]4Oc5cc(O)cc(O)c5C(=O)[C@@H]4O)ccc3O[C@H]2CO)ccc1O [Compound 1b, silybin B, reference compound] | 36 ± 14.3 | – | 17.1 | 70% | 172 ± 39 | –

Continued, in another order:

IC50 (Jurkat) [µM] | SMILES | reactivity towards HO• with respect to silibinin [1] | viability at 48 h, 200 µM [2] [%] | apoptotic cells (early and advanced) with respect to the control (Jurkat cells) | IC50 (HDF) [µM] | Second order rate constant kHO•,X II [3]
71 ± 15.5 | COc1cc([C@H]2Oc3cc([C@H]4Oc5cc(O)cc(O)c5C(=O)[C@@H]4O)ccc3O[C@@H]2COP(=O)(O)OC[C@H]2Oc3ccc([C@H]4Oc5cc(O)cc(O)c5C(=O)[C@@H]4O)cc3O[C@@H]2c2ccc(O)c(OC)c2)ccc1O [Compound 6aa] | – | 73 | 20% | > 200 | 8.63 ± 1.35 × 10^9 M^−1·s^−1
64 ± 10.8 | COc1cc([C@H]2Oc3cc([C@H]4Oc5cc(O)cc(O)c5C(=O)[C@@H]4O)ccc3O[C@@H]2COP(=O)(O)OC[C@@H]2Oc3ccc([C@H]4Oc5cc(O)cc(O)c5C(=O)[C@@H]4O)cc3O[C@H]2c2ccc(O)c(OC)c2)ccc1O [Compound 6ab] | – | 63.6 | about 25% | > 200 | 1.48 ± 0.09 × 10^10 M^−1·s^−1
59 ± 19.9 | COc1cc([C@@H]2Oc3cc([C@H]4Oc5cc(O)cc(O)c5C(=O)[C@@H]4O)ccc3O[C@H]2COP(=O)(O)OC[C@@H]2Oc3ccc([C@H]4Oc5cc(O)cc(O)c5C(=O)[C@@H]4O)cc3O[C@H]2c2ccc(O)c(OC)c2)ccc1O [Compound 6bb] | – | 84.8 | 4% | > 200 | 1.01 ± 0.16 × 10^10 M^−1·s^−1
